From article PMC10969560, “Eye Drop with Fas-Blocking Peptide Attenuates Age-Related Macular Degeneration” (Cells, 2024) come the findings set out here.

The test system of data set [1] is NaIO3-induced retinal degeneration rabbits. As to the kind of experiment: H&E staining, ONL to total retinal thickness, in NaIO3-induced retinal degeneration rabbits. Conditions: rabbit, Day 14, N=4, Figure 4D. Format: in vivo, chinchilla rabbits. As to the method: (§1) The efficacy of the treatment was evaluated through an experiment conducted by KNOTUS, a contract research organization. In brief, retinal degeneration was induced by intravenous injection of NaIO3 (60 mg/kg) in 20 chinchilla rabbits, weighing 2 kg.
(§2) The eye drop administration group received dosages of 5 mg/mL (250 μg/50 μL) per ocular instillation. For intravitreal administration, peptide solutions (5 mg/mL) were administered in increments of 40 μL per administration. A pipette was used to administer the test substance onto the central cornea of the right eye for each experimental group.
(§3) Anesthetized animals were administered the test substance via subconjunctival injection into the right eye using a 31-gauge syringe needle attached to a syringe. In the case of eye drop administration, the peptides and PBS were administered twice daily for 2 weeks, for a total of 28 administrations. For intravitreal administration, a single dose of the peptide was administered the day after the NaIO3 injection.
On the concluding day of the experiment (Day 14), the animals were anesthetized using the previously described mixture of Zoletil®50 and Rompun^TM, after which they were sacrificed. NaIO3-induced retinal degeneration eyes were then extracted, and the central cornea was punctured using an injection needle. Subsequently, the specimens were fixed in a 10% neutral buffered formalin solution. For histopathological examination, the fixed tissues were subjected to processes such as fixation, dehydration, paraffin embedding, and sectioning. H&E staining was then performed, and the proportion (%) of the thickness of the outer nuclear layer (ONL) to the overall retinal thickness was calculated using an Olympus BX-53 optical microscope (Olympus, Tokyo, Japan). Two slides were prepared per eyeball relative to the optic nerve. Measurements were taken at three points on each slide, amounting to a total of six values, which were averaged.

For data set [2] the test system is unchanged. As to the kind of experiment: Fundus imaging of RPE degenerated area in NaIO3-induced retinal degeneration rabbit model. Format: in vivo, chinchilla rabbits. Conditions: for RPE degeneration compared with mock treatment (fundus imaging): NaIO3 60 mg/kg i.v., N=4, Figure 4B; for level of RPE degeneration on day 14 compared with mock group (fundus imaging): day 14, N=4, Figure 4B. Here is the method:
as §1, §2, §3
Before the administration of NaIO3 (Day 0) and upon concluding the experiment (Day 14), the right eyes of the rabbits were treated with a mydriatic agent (1% midriacyl eye drops). Subsequently, the rabbits were anesthetized with a mixture of Zoletil®50 (Virbac, Carros, France) and Rompun^TM (Bayer AG, Leverkusen, Germany) through intravenous injection (marginal ear vein) at a dosage of 0.1 mL/kg. Fundus imaging was conducted using a fundus camera (TRC-50IX, TOPCON, Tokyo, Japan). The retinal images were analyzed using Image J software version 1.54d (NIH, Bethesda, MD, USA) to determine the area of degeneration in the RPE, with the RPE injury area being manually selected. The total area of the retina, excluding the optic nerve region, was defined as the total area. The proportion of degenerated area was calculated as a percentage using Equation (1). Degenerated area (%) = Degenerated area/Total area(1)

Data set [3] deals with NaIO3-induced retinal degeneration mice. Conditions: mouse, in vivo.
Method: Retinal degeneration was induced by intravenous injection of NaIO3 (30 mg/kg) in 6-week-old male BALB/c mice (N = 3 per group), weighing 18–22 g (Orient Bio, Seoul, Korea). The eye drop administration group received peptides dissolved in PBS at dosages of 10 mg/mL (50 μg/5 μL) per ocular instillation. For intravitreal administration, peptide solutions dissolved in PBS were administered into the vitreous humor at a concentration of 1 mg/mL (1 μg/1 μL) per administration.
The N-terminal of the target peptide was fluorescently tagged using Alexa Fluor™ 647 NHS Ester (Succinimidyl Ester) (Invitrogen, Carlsbad, CA, USA), following the manufacturer’s protocol. Subsequently, free dye molecules were removed through a PD-10 desalting column (GE Healthcare, Milwaukee, WI, USA). Seven days after induction with NaIO3, Alexa647-conjugated peptides were administered via eye drops. Twelve hours after the last administration, organs were harvested for experiments, and Alexa647 signals were detected on whole organs using a FOBI imaging machine ([sequence], Cheongju, Republic of Korea).
For IHC, eyes were harvested and embedded in the Tissue-Tek® OCT Compound (Sakura Finetek Europe BV, Alphen aan den Rijn, The Netherlands) to prepare cryoblocks for cryosectioning. After freezing the eyes in the Tissue-Tek® OCT Compound, the eyes were cryosectioned to a thickness of 10 μm and mounted with ProLong™ Glass Antifade Mountant with NucBlue™ Stain (Invitrogen). The anti-Fas rabbit mAb (#4233S, Cell Signaling Technology, Danvers, MA, USA) was used to capture the Fas receptor, and the Fas antibody was subsequently detected using Goat Anti-Rabbit IgG H&L (Alexa Fluor® 488) (ab150077, Abcam, Cambridge, UK). A ZEISS Axio Scan.Z1 Slide Scanner (Carl Zeiss, Oberkochen, Germany) was employed to detect NucBlue™ stained cell nuclei and the Alexa647-conjugated peptide signals.

Consider YCDEHFCY [FBP], for which the “proportion of thickness of ONL to total retinal thickness compared with mock group (H&E)” value in data set [1] (eye drops twice daily) and in data set [1] (single intravitreal injection) was “maintenance of the ONL” each time. Moreover, the “RPE degeneration compared with mock treatment (fundus imaging)” value in data set [2] (eye drops 5 mg/mL (250 μg/50 μL) twice daily for 14 days) is “significant reduction in RPE degeneration”; in data set [2] (single intravitreal injection 5 mg/mL, 40 μL), “significant reduction in RPE degeneration”. For the same sequence, the “level of RPE degeneration on day 14 compared with mock group (fundus imaging)” value in data set [2] (eye drops twice daily for 14 days) and in data set [2] (single intravitreal injection) was “significantly lower” throughout. Further, in data set [3], the “transfer to other organs (fluorescence signal vs normal group)” value was “not transferred to any other organ but the eyes”.
